Consider four molecules from PMC7006505, “Chemical biology tools for probing transcytosis at the blood–brain barrier” (Chemical Science, 2019).

By EC50 is commonly meant the concentration at which the effect is half-maximal.

For test [1], the target named is T1, extracellular subunit of TfR recombinant human protein, N-His Tag (Homo sapiens, UniProt P02786).
T1 construct: extracellular subunit of TfR; purchased Life Technologies
Kind of test: TfR binding ELISA (FAM-labelled shuttles on TfR-coated plates). To be noted: plates coated with 1 µg/ml TfR, 1 h at room temp in PBS, anti-FAM HRP antibody (streptavidin peroxidase for Tf-biotin), absorption 450 nm, read-out: apparent binding affinity (EC50) to TfR. As for the experimental part: To evaluate functionality of the conjugated peptides, in vitro analyses were performed. TfR binding was assessed through an ELISA format, whereby FAM-conjugated shuttles were serially diluted and added to plates that were coated with TfR protein. FAM-labelled vehicles were detected by an anti-FAM HRP-conjugated antibody.
The procedure was performed at room temp on a shaking platform using PBS-Tween (0.05%) for the wash steps. Nickel coated clear 96-well plates (Pierce) was coated overnight with 1 µg/ml of the extracellular subunit of TfR recombinant human protein, N-His Tag (Life Technologies) in 0.5 M Carbonate buffer. The plates were washed (5 × 150 µL) and blocked for 1 h with PBS containing 1% BSA. 100 µL of the compound dilutions in PBS were transferred to the plate and incubated for 1 h at room temp, after which time the plates were washed (5 × 150 µL). A Goat anti-FAM peroxidase labelled antibody (Abcam, 1:100 000) was added to the wells and incubated for 30 min. Following 6 washes, 50 µL of TMB Substrate Solution (Sigma) was added per well and incubated for a further 30 min. After addition of 50 µL of 2 M sulphuric acid to each well , receptor complexes were detected by measuring absorption at 450 nm. The procedure for determining the binding affinity of biotin labelled Tf (Sigma) was similar except streptavidin peroxidas e (ThermoFisher Scientific) (1:20 000) was used to measure the Tf -receptor complex.
Imaging and Immunochemistry
Colocalis ation of delivery scaffolds with LAMP1 and Tf -A647 bEND.3 cells were seeded at a density of 1 x 10^4 cells/we ll in 8-well glass plates (ibidi ) coated with rat tail collagen. After 3 days at 100 % confluence, cells were washed with PBS (3 × 180 µL), and co-incubated with brain delivery scaffolds (5 µM) and Tf-A647 (50 µg/ml) at 37 °C for 2 h in FluoroBrite DMEM media (Thermofisher). Cells were washed with PBS (3 × 180 µL), then fixed with 4 % paraformaldehyde for 15 min at room temperature. […]
(ELISA stands for enzyme-linked immunosorbent assay.)

A further test concerns the target TfR. The conditions noted are these: micromolar affinity; read-out: affinity towards the receptor (TfR); cited from earlier work. The source says:
To enable targeted brain delivery, we chose to functionalise our scaffold with established ligands that engage the transferrin receptor (TfR) and low-density lipoprotein-receptor related protein (LRP1). The relative abundance of these receptors on brain endothelial, alongside their high transport capacity, made them ideal targets for RMT mediated delivery and both have been actively explored in research.[8],[14]–[16]

T1 sequence (P02786 89-760 limits assumed): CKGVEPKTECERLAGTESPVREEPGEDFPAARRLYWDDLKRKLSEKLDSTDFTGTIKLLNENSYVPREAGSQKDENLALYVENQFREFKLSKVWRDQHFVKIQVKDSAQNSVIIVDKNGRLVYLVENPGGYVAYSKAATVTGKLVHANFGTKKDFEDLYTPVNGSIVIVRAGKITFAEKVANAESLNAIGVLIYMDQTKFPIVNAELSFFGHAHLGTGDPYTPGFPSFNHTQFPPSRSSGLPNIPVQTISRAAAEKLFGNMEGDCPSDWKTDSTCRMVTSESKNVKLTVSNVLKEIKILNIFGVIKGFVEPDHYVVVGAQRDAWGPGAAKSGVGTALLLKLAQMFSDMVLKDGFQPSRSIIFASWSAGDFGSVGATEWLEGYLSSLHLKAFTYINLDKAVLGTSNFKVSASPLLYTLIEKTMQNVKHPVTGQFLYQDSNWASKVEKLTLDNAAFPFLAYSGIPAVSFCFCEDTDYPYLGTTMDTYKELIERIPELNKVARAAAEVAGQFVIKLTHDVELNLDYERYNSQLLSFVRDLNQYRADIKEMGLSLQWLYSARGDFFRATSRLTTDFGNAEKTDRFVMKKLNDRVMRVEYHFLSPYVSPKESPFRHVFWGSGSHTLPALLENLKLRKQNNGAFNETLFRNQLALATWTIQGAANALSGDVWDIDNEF

As to “Tf-biotin: biotin labelled transferrin (Sigma) [reference compound]”, in test [1], the EC50 was found to be 20.9 ± 2.1 nM. For the molecule HAIYPRH [TfRL2], the Kd on TfR was 440000 nM.

Take `CC[C@H](C)[C@H](NC(=O)[C@H](C)NC(=O)[C@H](Cc1c[nH]cn1)NC(=O)[C@@H](N)CCCCn1cc(C[C@H](NC(=O)[C@@H]2CCCN2C(=O)[C@@H]2CCCN2C(=O)[C@@H]2CCCN2C(=O)[C@H](CC(C)C)NC(=O)[C@H](CCCNC(=N)N)NC(=O)[C@@H](NC(=O)[C@@H]2CCCN2C(=O)[C@@H]2CCCN2C(=O)[C@@H]2CCCN2C(=O)[C@H](Cc2cn(CCCC[C@H](N)C(=O)N[C@@H](Cc3c[nH]cn3)C(=O)N[C@@H](C)C(=O)N[C@H](C(=O)N[C@@H](Cc3ccc(O)cc3)C(=O)N3CCC[C@H]3C(=O)N[C@@H](CCCNC(=N)N)C(=O)N[C@@H](Cc3c[nH]cn3)C(N)=O)[C@@H](C)CC)nn2)NC(=O)[C@H](CCCNC(=N)N)NC(=O)[C@@H](NC(=O)c2ccc3c(c2)C(=O)OC32c3ccc(O)cc3Oc3cc(O)ccc32)C(C)C)C(C)C)C(=O)N[C@@H](CCCNC(=N)N)C(=O)N[C@@H](CC(C)C)C(=O)N2CCC[C@H]2C(=O)N2CCC[C@H]2C(=O)N2CCC[C@H]2C(N)=O)nn1)C(=O)N[C@@H](Cc1ccc(O)cc1)C(=O)N1CCC[C@H]1C(=O)N[C@@H](CCCNC(=N)N)C(=O)N[C@@H](Cc1c[nH]cn1)C(N)=O` [PPII(L3X;V13X)TfRL2]: the half-maximal effective concentration (EC50) in test [1] was 12.7 ± 1.37 nM.

`CC[C@H](C)[C@H](NC(=O)[C@H](C)NC(=O)[C@H](Cc1c[nH]cn1)NC(=O)[C@@H](N)CCCCn1cc(C[C@H](NC(=O)[C@H](CCCNC(=N)N)NC(=O)[C@@H](NC(=O)[C@@H]2CCCN2C(=O)[C@@H]2CCCN2C(=O)[C@@H]2CCCN2C(=O)[C@H](CC(C)C)NC(=O)[C@H](CCCNC(=N)N)NC(=O)[C@@H](NC(=O)[C@@H]2CCCN2C(=O)[C@@H]2CCCN2C(=O)[C@@H]2CCCN2C(=O)[C@H](Cc2cn(CCCC[C@H](N)C(=O)N[C@@H](Cc3c[nH]cn3)C(=O)N[C@@H](C)C(=O)N[C@H](C(=O)N[C@@H](Cc3ccc(O)cc3)C(=O)N3CCC[C@H]3C(=O)N[C@@H](CCCNC(=N)N)C(=O)N[C@@H](Cc3c[nH]cn3)C(N)=O)[C@@H](C)CC)nn2)NC(=O)[C@H](CCCNC(=N)N)NC(=O)[C@@H](NC(=O)c2ccc3c(c2)C(=O)OC32c3ccc(O)cc3Oc3cc(O)ccc32)C(C)C)C(C)C)C(C)C)C(=O)N2CCC[C@H]2C(=O)N2CCC[C@H]2C(=O)N2CCC[C@H]2C(N)=O)nn1)C(=O)N[C@@H](Cc1ccc(O)cc1)C(=O)N1CCC[C@H]1C(=O)N[C@@H](CCCNC(=N)N)C(=O)N[C@@H](Cc1c[nH]cn1)C(N)=O` [PPII(L3X;L15X)TfRL2]: the EC50 in test [1] is 11.8 ± 1.11 nM.
